# Reference: US8877940B2, “Antibiotic tolerance inhibitors” (Institut National de la Recherche Scientifique, priority 2011, dated 2014)
# Entries after “also recorded” stand apart in the source; their conditions may differ.
# Assays:
# [1] = test system: Raw264.7 macrophage cells infected with PA14; experiment: Viability of PA14-infected macrophage cells (MTT assay); assay type: cell-based
# Method: Raw264.7 macrophage cells were cultured in Dulbecco's modified eagles medium (DMEM) containing 10% FCS, 2 mM glutamine and antibiotic-antimycotic solutions. Before infections cells were washed with PBS (without Mg2+ and Ca2+) and antibiotic-free medium was used for infections. The cells were infected with PA14 and PA14 isolates grown in the presence of compounds at an MOI of 100 for 3 h at 37° C. in a 5% CO2 atmosphere. During infections cells were incubated with 100 μM of compounds as well. After 3 hours of PA14 infection, the cells were washed and incubated with DMEM medium containing polymixin B and gentamicin in order to kill the extracellular bacteria. The viability of Raw264.7 was assessed using the MTT assay, which detects the early sign of eukaryotic cell death. The formazan crystals formed in viable, metabolically active cells were dissolved by the addition of 100 μl DMSO and optical density was measured at 570 nm in a microplate reader.
# In order to determine whether or not the potent inhibitors are cytotoxic in eukaryotes, Raw 264.7 macrophage cells were exposed to selected compounds. No significant cytotoxicity was observed following compound exposure for 3 hours compared to the DMSO solvent control (FIG. 6A). The cytotoxicity of the macrophage cells was also determined when infected with PA14 bacterial cells alone or in the presence of the compounds.
# [2] = target: MvfR binding to pqsA promoter (Pseudomonas aeruginosa, UniProt Q9I4X0)
# Chain of MvfR binding to pqsA promoter (Q9I4X0 whole entry, looked up): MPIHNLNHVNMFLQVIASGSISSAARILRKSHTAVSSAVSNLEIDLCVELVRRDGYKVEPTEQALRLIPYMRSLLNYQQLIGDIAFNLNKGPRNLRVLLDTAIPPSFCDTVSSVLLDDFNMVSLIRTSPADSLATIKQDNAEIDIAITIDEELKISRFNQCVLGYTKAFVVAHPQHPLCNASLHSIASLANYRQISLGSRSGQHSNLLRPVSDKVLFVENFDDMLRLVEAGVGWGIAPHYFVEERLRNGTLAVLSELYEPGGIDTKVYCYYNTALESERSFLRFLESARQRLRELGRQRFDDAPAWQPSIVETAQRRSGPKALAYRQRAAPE
# [3] = test system: pyocyanin, an MvfR-regulated virulence factor, P. aeruginosa PA14; experiment: Quantification of pyocyanin (OD520nm of chloroform-extracted cultures); assay type: cell-based, Pseudomonas aeruginosa; conditions: very low concentrations, nanomolar range
# Method: Pyocyanin levels were determined by measuring OD520nm of chloroform-extracted cultures.
# Compounds were tested at various concentrations for their impact on 4-hydroxy-2-alkylquinoline (HAQ) levels, including the MvfR ligands 4-hydroxy-2-heptylquinoline (HHQ) and 3,4-dihydroxy-2-heptylquinoline (PQS), as well as 2-n-heptyl-4-hydroxyquinoline-N-oxide (HQNO) and 2,4-dihydroxyquinoline (DHQ) (FIGS. 2A-2C). Levels of the phenazine, pyocyanin, an MvfR-regulated virulence factor, were also determined.
# [4] = test system: P. aeruginosa PA14; experiment: Murine burn and infection model; conditions: ~100 μM compound/mouse at infection and IV at 6 and 24 h; solvent control 38%
# Method: A thermal injury mouse model was used as described previously to assess bacterial pathogenicity in 6 week old BALBC mice (Charles River Laboratories). Following mouse anesthetization, a full-thickness thermal burn injury involving 5%-8% of the body surface area was produced on the dermis of the shaved abdomen. An inoculum of 4×10^4 PA14 cells, corresponding to a lethal dose of 50%, was injected intradermally into the burn eschar along with the compound or solvent, prepared as follows: 5 μl of a 50 mM stock in DMSO of compound was added to a solution of 5% CremophorEL/Ethanol (50/50% vol) in 50 μl saline. […] Each mouse also received IV injections of 50 μl of compound or solvent, as prepared above at 6 hours and 24 hours post-infection.
# A murine thermal injury and infection model was used to assess the impact of the compounds on P. aeruginosa pathogenesis in animals. Due to the hydrophobic nature of the compounds, 5% CremophorEL/Ethanol (50/50% vol) was used as an emulsifier to dissolve the compound in saline prior to injecting into animals. […] The bacteria and either 100 μM compound/mouse or DMSO control were co-injected at the time of infection. Compounds were also injected 6 hours and 24 hours post-infection.
# [5] = test system: P. aeruginosa PA14; experiment: Murine burn and infection model, M64 plus ciprofloxacin; assay type: in vivo, DC-1 mice; conditions: IV at 6, 20, 28, 40, 60, 68 and 80 h; M64 100 μM (4 mg/Kg), ciprofloxacin 0.4 mg/Kg; 7 days; un-injected controls 30%
# Source text: A murine thermal injury model (Stevens et al., J Burn Care Rehabil. 1994; 15:232-235) was used as previously described to further assess bacterial pathogenicity in 6-wk-old DC-1 mice (Rahme et al., Science, 268(5219): p. 1899-902 (1995)) in the presence of combination of Ciprofloxacin (Bayer AG) and M64. Following mouse anesthetization, a full-thickness thermal burn injury involving 5%-8% of the body surface area was produced on the dermis of the shaved abdomen, and an inoculum of about 6-7×10^3 PA14 cells was injected intradermally into the burn eschar along with DMSO or 100 μM M64 compound. 100 μM (4 mg/Kg) of M64, 0.4 mg/Kg of ciprofloxacin (lower than the recommended dose of 10 mg/Kg), or a combination of M64+ciproflocaxin was also injected IV via tail vein at 6, 20, 28, 40, 60, 68 h and 80 h post-infection. Mice survival was subsequently assessed over the course of 7 days. Ten animals per treatment were used. In this set of experiments the concentration of ciprofloxacin used was lower than the therapeutic levels recommended to permit assessment of the possible synergistic effect between M64 and ciprofloxacin.
# [6] = test system: 4-hydroxy-2-alkylquinoline (HAQ) levels, P. aeruginosa PA14 (MvfR regulon); assay type: cell-based, Pseudomonas aeruginosa; conditions: very low concentrations, nanomolar range
compound,measurement,setting,value
"O=C(CSc1nc2ccc([N+](=O)[O-])cc2[nH]1)Nc1ccc(Oc2ccccc2)cc1 [Compound M64, 2-((6-nitro-1H-benzo[d]imidazol-2-yl)thio)-N-(4-phenoxyphenyl)acetamide]",viability at 100 µM,"[1]; Mus musculus, RAW264.7, 3 h, read-out: viable macrophage cells surviving post-infection",80%
same,reduction of PA14-induced cytotoxicity,"[1]; PA14 MOI 100, 3 h, 100 μM compound",effectively reduced cytotoxicity
same,effect on MvfR binding to pqsA promoter (ChIP fold enrichment),[2],affects MvfR binding to pqsA promoter by competing with the MvfR ligand PQS
same,reduction / inhibition of pyocyanin,[3],one of the most effective; also recorded: considerably inhibited
same,overall surviving mice,[4],84%
same,survival rate,[5],75%
same,reduction / inhibition of HAQs,[6],one of the most effective; also recorded: considerably inhibited
